# Data reported in patent US10894784B2, “Heteroarylbenzimidazole compounds” (BAYER PHARMA AKTIENGESELLSCHAFT, priority 2015, dated 2021).
# Biological target: TBK1 (Homo sapiens (Human), UniProt Q9UHD2)
# Experiment: TBK1 low ATP kinase assay (in vitro assay 1)
# Format: biochemical
# Details: in vitro assay 1, read-out: TBK1 low ATP kinase assay IC50
# TBK1, sequence (Q9UHD2 whole entry): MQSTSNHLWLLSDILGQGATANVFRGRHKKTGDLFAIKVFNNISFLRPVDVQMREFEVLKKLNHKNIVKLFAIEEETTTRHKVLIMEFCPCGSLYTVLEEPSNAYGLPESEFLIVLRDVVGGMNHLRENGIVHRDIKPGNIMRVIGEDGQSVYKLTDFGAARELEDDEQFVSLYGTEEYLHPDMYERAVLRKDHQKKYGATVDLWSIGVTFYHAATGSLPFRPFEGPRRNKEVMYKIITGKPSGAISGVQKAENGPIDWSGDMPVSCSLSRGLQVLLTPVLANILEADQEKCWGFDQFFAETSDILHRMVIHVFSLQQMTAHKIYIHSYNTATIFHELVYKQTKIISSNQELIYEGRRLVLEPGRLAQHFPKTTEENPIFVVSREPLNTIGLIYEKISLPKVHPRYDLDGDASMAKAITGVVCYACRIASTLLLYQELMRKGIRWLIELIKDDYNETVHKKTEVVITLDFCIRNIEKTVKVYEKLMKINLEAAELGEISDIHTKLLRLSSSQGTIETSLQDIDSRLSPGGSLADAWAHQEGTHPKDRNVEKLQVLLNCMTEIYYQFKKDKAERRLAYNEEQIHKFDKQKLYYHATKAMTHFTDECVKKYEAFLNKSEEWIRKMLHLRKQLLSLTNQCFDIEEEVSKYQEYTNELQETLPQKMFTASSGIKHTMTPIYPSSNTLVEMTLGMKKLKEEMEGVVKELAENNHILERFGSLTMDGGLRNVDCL
row,Compound,IC50 [nM]
1,"Cc1cc(-c2ccc3nc(Nc4cc(CN5CCN(C(=O)OC(C)(C)C)CC5)ccn4)[nH]c3c2)c(F)cn1 [Example 131.01, tert-butyl 4-[(2-{[6-(5-fluoro-2-methylpyridin-4-yl)-1H-benzimidazol-2-yl]amino}pyridin-4-yl)methyl]piperazine-1-carboxylate]",140
2,"O=C(C1CC1)N1CCN(Cc2ccnc(Nc3nc4ccc(-c5nc(C6CC6)no5)cc4[nH]3)c2)CC1 [Example 17.05, cyclopropyl{4-[(2-{[6-(3-cyclopropyl-1,2,4-oxadiazol-5-yl)-1H-benzimidazol-2-yl]amino}pyridin-4-yl)methyl]piperazin-1-yl}methanone]",38.2
3,"COc1cc(-c2ccc3nc(Nc4cc(CN5CCN(C(=O)C6CCC6)CC5)ccn4)[nH]c3c2)c(F)cn1 [Example 03.03, cyclobutyl{4-[(2-{[6-(5-fluoro-2-methoxypyridin-4-yl)-1H-benzimidazol-2-yl]amino}pyridin-4-yl)methyl]piperazin-1-yl}methanone]",279
4,"Cc1c[nH]c(-c2ccc3nc(Nc4cc(CN5CCN(C(=O)C6CC6)CC5)ccn4)[nH]c3c2)n1 [Example 43.02, cyclopropyl{4-[(2-{[6-(4-methyl-1H-imidazol-2-yl)-1H-benzimidazol-2-yl]amino}pyridin-4-yl)methyl]piperazin-1-yl}methanone]",1840
5,"O=C(CC(F)(F)F)N1CCN(Cc2ccnc(Nc3nc4ccc(-c5ccncc5C(F)(F)F)cc4[nH]3)c2)CC1 [Example 106.01, 3,3,3-trifluoro-1-(4-{[2-({6-[3-(trifluoromethyl)pyridin-4-yl]-1H-benzimidazol-2-yl}amino)pyridin-4-yl]methyl}piperazin-1-yl)propan-1-one]",1500
6,"O=C(C1CC1)N1CCN(Cc2ccnc(Nc3nc4ccc(-c5cnc(Cl)cn5)cc4[nH]3)c2)CC1 [Example 140.03, {4-[(2-{[6-(5-chloropyrazin-2-yl)-1H-benzimidazol-2-yl]amino}pyridin-4-yl)methyl]piperazin-1-yl}(cyclopropyl)methanone]",290
7,"O=C(C1CC1)N1CCN(Cc2ccnc(Nc3nc4ccc(-c5ncccn5)cc4[nH]3)c2)CC1 [Example 180.03, cyclopropyl{4-[(2-{[6-(pyrimidin-2-yl)-1H-benzimidazol-2-yl]amino}pyridin-4-yl)methyl]piperazin-1-yl}methanone]",364
8,"CN(C)c1cnc(-c2ccc3nc(Nc4cc(CN5CCN(C(=O)OC(C)(C)C)CC5)ccn4)[nH]c3c2)cn1 [Example 144.01, tert-butyl 4-{[2-({6-[5-(dimethylamino)pyrazin-2-yl]-1H-benzimidazol-2-yl}amino)pyridin-4-yl]methyl}piperazine-1-carboxylate]",510
9,"CCn1cc(-c2ccc3nc(Nc4cc(CN5CCN(C(=O)CC(F)(F)F)CC5)ccn4)[nH]c3c2OCC(C)C)cn1 [Example 52.01, 1-{4-[(2-{[6-(1-ethyl-1H-pyrazol-4-yl)-7-(2-methylpropoxy)-1H-benzimidazol-2-yl]amino}pyridin-4-yl)methyl]piperazin-1-yl}-3,3,3-trifluoropropan-1-one]",64.7
10,"O=C(CC1CC1)N1CCN(Cc2ccnc(Nc3nc4ccc(-c5nc(C6CC6)no5)cc4[nH]3)c2)CC1 [Example 17.03, 2-cyclopropyl-1-{4-[(2-{[6-(3-cyclopropyl-1,2,4-oxadiazol-5-yl)-1H-benzimidazol-2-yl]amino}pyridin-4-yl)methyl]piperazin-1-yl}ethanone]",56.5
11,"O=C(CC(F)(F)F)N1CCN(Cc2ccnc(Nc3nc4ccc(-c5nc(C6CC6)no5)cc4[nH]3)c2)CC1 [Example 17.02, 1-{4-[(2-{[6-(3-cyclopropyl-1,2,4-oxadiazol-5-yl)-1H-benzimidazol-2-yl]amino}pyridin-4-yl)methyl]piperazin-1-yl}-3,3,3-trifluoropropan-1-one]",64.9

# Compounds with a lower IC50, results first:
row,IC50 [nM],Compound
1,13.8,"COc1cnccc1-c1ccc2nc(Nc3cc(CN4CCN(C(=O)C5CC5(F)F)CC4)ccn3)[nH]c2c1 (racemic) [Example 04.08, ((1RS)-2,2-difluorocyclopropyl){4-[(2-{[6-(3-methoxypyridin-4-yl)-1H-benzimidazol-2-yl]amino}pyridin-4-yl)methyl]piperazin-1-yl}methanone]"
2,7.12,"CC(C)Oc1cnccc1-c1ccc2nc(Nc3cc(CN4CCN(C(=O)C5CC5)CC4)ccn3)[nH]c2c1 [Example 06.02, cyclopropyl(4-{[2-({6-[3-(propan-2-yloxy)pyridin-4-yl]-1H-benzimidazol-2-yl}amino)pyridin-4-yl]methyl}piperazin-1-yl)methanone]"
3,7.1,"1-(4-{(1R or 1S)-1-[2-({6-[1-(cyclopentylmethyl)-1H-pyrazol-4-yl]-1H-benzimidazol-2-yl}amino)pyridin-4-yl]ethyl}piperazin-1-yl)-3,3,3-trifluoropropan-1-one [Example 71.02]"
4,12,"CC(c1ccnc(Nc2nc3ccc(-c4cnn(CC5(Cl)CC5)c4)cc3[nH]2)c1)N1CCN(C(=O)OC(C)(C)C)CC1 (single isomer, unassigned) [Example 69.01, tert-butyl 4-[(1R or 1S)-1-{2-[(6-{1-[(1-chlorocyclopropyl)methyl]-1H-pyrazol-4-yl}-1H-benzimidazol-2-yl)amino]pyridin-4-yl}ethyl]piperazine-1-carboxylate]"
5,30,"CN(C)c1cc(-c2ccc3nc(Nc4cc(CN5CCN(C(=O)C6CC6)CC5)ccn4)[nH]c3c2)ccn1 [Example 135.03, cyclopropyl(4-{[2-({6-[2-(dimethylamino)pyridin-4-yl]-1H-benzimidazol-2-yl}amino)pyridin-4-yl]methyl}piperazin-1-yl)methanone]"
6,2.3,"O=C(CC(F)(F)F)N1CCN(Cc2ccnc(Nc3nc4ccc(-c5cc(N6CCCC6)ncn5)cc4[nH]3)c2)CC1 [Example 93.01, 3,3,3-trifluoro-1-(4-{[2-({6-[6-(pyrrolidin-1-yl)pyrimidin-4-yl]-1H-benzimidazol-2-yl}amino)pyridin-4-yl]methyl}piperazin-1-yl)propan-1-one]"
7,7.5,"CC(C)(C)OC(=O)N1CCN(Cc2ccnc(Nc3nc4ccc(-c5cc(NCC6CC6)ncn5)cc4[nH]3)c2)CC1 [Example 142.01, tert-butyl 4-({2-[(6-{6-[(cyclopropylmethyl)amino]pyrimidin-4-yl}-1H-benzimidazol-2-yl)amino]pyridin-4-yl}methyl)piperazine-1-carboxylate]"
8,11.5,"COc1cncnc1-c1ccc2nc(Nc3cc(C(C)N4CCN(C(=O)CC5CC5)CC4)ccn3)[nH]c2c1 (racemic) [Example 35.02.02, (rac)-2-cyclopropyl-1-{4-[1-(2-{[6-(5-methoxypyrimidin-4-yl)-1H-benzimidazol-2-yl]amino}pyridin-4-yl)ethyl]piperazin-1-yl}ethanone]"
9,1.4,"CC(C)Nc1cc(-c2ccc3nc(Nc4cc(CN5CCN(C(=O)C6CC6)CC5)ccn4)[nH]c3c2)ncn1 [Example 154.03, cyclopropyl(4-{[2-({6-[6-(propan-2-ylamino)pyrimidin-4-yl]-1H-benzimidazol-2-yl}amino)pyridin-4-yl]methyl}piperazin-1-yl)methanone]"
10,35.4,"Cc1nccc(-c2ccc3nc(Nc4cc(CN5CCN(C(=O)CC(F)(F)F)CC5)ccn4)[nH]c3c2)n1 [Example 24.01.01, 3,3,3-trifluoro-1-{4-[(2-{[6-(2-methylpyrimidin-4-yl)-1H-benzimidazol-2-yl]amino}pyridin-4-yl)methyl]piperazin-1-yl}propan-1-one]"
